Results published in paper PMC6497546 (Molecular cancer therapeutics, 2019).

Test system: AR42J tumor
Assay: Combination efficacy study with 5-fluorouracil
Assay type: in vivo, mice
Settings: 5-fluorouracil alone, 15mg/kg once per week for nine weeks; post cell injection

O=c1[nH]cc(F)c(=O)[nH]1 [5-fluorouracil]
median survival: 2.4 weeks
